From patent EP1066315B1 (University of Dundee, priority 1998, dated 2008)
Residues, ends and D or L forms follow the SMILES beside them. *: point of attachment. Fmoc = O=C(OCC1c2ccccc2-c2ccccc21)*

Test system: AEP
Assay: Hydrolysis of asparagine peptide substrate by B cell lysosomal fractions
Assay type: biochemical, human
Conditions: increasing concentrations of peptide, Fig 3b
Experimental: The invention will now be described by reference to the following Examples and Figures wherein • Figure 1: Processing of TTCF by a leupeptin-insensitive cysteine endopeptidase activity. (a) TTCF was digested in vitro in the presence of disrupted lysosomes (1-2 µg) in the presence or absence of iodoacetamide (1 mM), leupeptin, E64 or pepstatin (each at 0.1 mg/ml). Digestions were in 0.1 M NH4 acetate at pH 4.5 or Na2HPO4, pH 6.0 or 7.0. After 4 hours at 37°C, the reactions were separated by Tris-tricine SDS-PAGE and stained with Coomassie Blue. (b) Cleavage sites: TTCF digestion products were separated by SDS PAGE and electrophoretically transferred to nitrocellulose membrane. Individual fragments numbered 1-6 were subjected to 5 cycles of Edman degradation. N-terminal sequence obtained is shown in bold following upstream residues from TTCF (tetanus toxin numbering). […] (c) Each fraction was analysed by SDS-PAGE and Western blotting. […] Release of 7-amino-4-methyl coumarin was measured after 10, 20 or 30 minutes. […] At different times the cells were washed, fixed in 0.05 % glutaraldehyde and antigen presentation measured using proliferation of different autologous TTCF-specific T cell clones. c, AEP pre-processing of TTCF speeds antigen presentation. […] Presentation was measured after 60 minutes of antigen pulsing using EBV B cells. […]

## C[C@H](NC(=O)OCC1c2ccccc2-c2ccccc21)C(=O)N[C@@H](CCC(=O)O)C(=O)N[C@@H](CC(N)=O)C(=O)N[C@@H](CCCCN)C(N)=O [AENK, Ala-Glu-Asn-Lys-NH] (Fmoc-AENK-NH2)
  cleavage of Z-Val-Ala-Asn-NHMec: completely blocked
